# Assay results taken from article PMC4503722, “Novel Phenotypic Outcomes Identified for a Public Collection of Approved Drugs from a Publicly Accessible Panel of Assays” (PLoS ONE, 2015).
# Like-named read-outs stand apart in the source and are kept apart here.
# Columns and labels:
# [1] = test system: HeLa cells; assay: cells; format: cell-based;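 as to Hela CellCycMod PI 4N summarized IC50: value tracks stimulation of 4N DNA content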
# [2] = test system: SW480; assay: cells; format: cell-based; settings: for IC50: read-out: Basal_Viability ATP SW480 summarized IC50
# [3] = test system: Colo320; assay: cells; format: cell-based; settings: for IC50: read-out: Basal_Viability ATP Colo 320 summarized IC50
# [4] = test system: RKO; assay: cells; format: cell-based; settings: for IC50: read-out: Basal_Viability ATP RKO summarized IC50
# [5] = test system: endothelial tube formation in co-cultures of ECFCs and ADSCs treated with VEGF; assay: cells; format: cell-based, human; settings: for IC50: read-out: VEGF_ADSC\ECFC Angio CD31 TubeArea summarized IC50
# [6] = test system: DLD-1; assay: cells; format: cell-based; settings: for IC50: read-out: Basal_Viability ATP DLD-1 summarized IC50
# [7] = test system: ECFC/ADSC co-culture cell nuclei number; settings: for IC50: read-out: VEGF_ADSC\ECFC Angio Hoechst NucArea summarized IC50
# [8] = test system: HT-29; assay: cells; format: cell-based; settings: for IC50: read-out: Basal_Viability ATP HT-29 summarized IC50
# [9] = test system: HCT116; assay: cells; format: cell-based; settings: for IC50: read-out: Basal_Viability ATP HCT116 summarized IC50
# [10] = test system: HCT116 cells treated with a GSK3β inhibitor; assay: cells; format: cell-based; settings: for IC50: read-out: GSK3b inh pretreated_Viability ATP HCT116 summarized IC50
# [11] = test system: SNU-C1; assay: cells; format: cell-based; settings: for IC50: read-out: Basal_Viability ATP SNU-C1 summarized IC50
# [12] = assay number 26, GSK3b inhibitor pretreated
smiles,measurement,setting,value
Cl.O[C@@H](CNC[C@H](O)[C@H]1CCc2cc(F)ccc2O1)[C@@H]1CCc2cc(F)ccc2O1 [NCGC00263579-01],Hela CellCycMod PI 2N IC50/EC50,"[1]; assay number 14, 2N",> 10 µM
same,Hela CellCycMod PI S Phase IC50/EC50,"[1]; assay number 15, S phase",> 10 µM
same,Hela CellCycMod PI 4N IC50/EC50,"[1]; assay number 16, 4N",> 10 µM
same,Hela CellCycMod PI MI IC50/EC50,"[1]; assay number 17, MI",> 10 µM
same,Hela CellCycMod PI Cell Number IC50/EC50,"[1]; assay number 18, cell number",5.565 µM
same,Basal_Viability ATP SW480 IC50/EC50,[2]; assay number 24,3.6015 µM
same,Basal_Viability ATP Colo 320 IC50/EC50,[3]; assay number 27,> 20 µM
same,Basal_Viability ATP RKO IC50/EC50,[4]; assay number 29,3.2799 µM
same,VEGF_ADSC\ECFC Angio CD31 TubeArea IC50/EC50,[5],> 10 µM
same,Basal_Viability ATP DLD-1 IC50/EC50,[6]; assay number 23,15.2632 µM
same,VEGF_ADSC\ECFC Angio Hoechst NucArea IC50/EC50,[7],> 10 µM
same,Basal_Viability ATP HT-29 IC50/EC50,[8]; assay number 28,4.5046 µM
same,Basal_Viability ATP HCT116 IC50/EC50,"[9]; assay number 25, basal",6.4812 µM
same,GSK3b inh pretreated_Viability ATP HCT116 IC50/EC50,[10]; [12],2.3971 µM
same,Basal_Viability ATP SNU-C1 IC50/EC50,[11]; assay number 30,5.0932 µM
CO[C@@]12[C@H](COC(N)=O)C3=C(C(=O)C(C)=C(N)C3=O)N1C[C@@H]1N[C@@H]12 [NCGC00163468-05],Hela CellCycMod PI 2N IC50/EC50,[1],0.0133 µM
same,Hela CellCycMod PI 4N IC50/EC50,[1],> 10 µM
same,Hela CellCycMod PI Cell Number IC50/EC50,[1],0.07733 µM
same,Hela CellCycMod PI MI IC50/EC50,[1],> 10 µM
same,Hela CellCycMod PI S Phase IC50/EC50,[1],0.1428 µM
same,Basal_Viability ATP SW480 IC50/EC50,[2],12.0548 µM
same,Basal_Viability ATP Colo 320 IC50/EC50,[3],12.5546 µM
same,Basal_Viability ATP RKO IC50/EC50,[4],0.9953 µM
same,VEGF_ADSC\ECFC Angio CD31 TubeArea IC50/EC50,[5],0.1019 µM
same,Basal_Viability ATP DLD-1 IC50/EC50,[6],5.6318 µM
same,VEGF_ADSC\ECFC Angio Hoechst NucArea IC50/EC50,[7],5.961 µM
same,Basal_Viability ATP HT-29 IC50/EC50,[8],2.5705 µM
same,Basal_Viability ATP HCT116 IC50/EC50,[9],13.6261 µM
same,GSK3b inh pretreated_Viability ATP HCT116 IC50/EC50,[10],> 20 µM
same,Basal_Viability ATP SNU-C1 IC50/EC50,[11],8.1272 µM
OC[C@H]1O[C@@H](n2cnc3c(=S)nc[nH]c32)[C@H](O)[C@@H]1O [NCGC00096122-05],"IC50/EC50, Hela CellCycMod PI 2N (assay number 14)",[1]; 2N,> 10 µM
same,"IC50/EC50, Hela CellCycMod PI 4N (assay number 16)",[1]; 4N,> 10 µM
same,"IC50/EC50, Hela CellCycMod PI Cell Number (assay number 18)",[1]; Cell Number,> 10 µM
same,"IC50/EC50, Hela CellCycMod PI MI (assay number 17)",[1]; MI,> 10 µM
same,"IC50/EC50, Hela CellCycMod PI S Phase (assay number 15)",[1]; S Phase,> 10 µM
same,"IC50/EC50, Basal_Viability ATP SW480 (assay number 24)",[2]; basal,0.02867 µM
same,"IC50/EC50, Basal_Viability ATP Colo 320 (assay number 27)",[3]; basal,1.064 µM
same,"IC50/EC50, Basal_Viability ATP RKO (assay number 29)",[4]; basal,0.01437 µM
same,"IC50/EC50, VEGF_ADSC\ECFC Angio CD31 TubeArea (assay number 2)",[5],1.4206 µM
same,"IC50/EC50, Basal_Viability ATP DLD-1 (assay number 23)",[6]; basal,0.06302 µM
same,"IC50/EC50, VEGF_ADSC\ECFC Angio Hoechst NucArea (assay number 3)",[7],> 10 µM
same,"IC50/EC50, Basal_Viability ATP HT-29 (assay number 28)",[8]; basal,0.1181 µM
same,"IC50/EC50, Basal_Viability ATP HCT116 (assay number 25)",[9]; basal,0.02858 µM
same,"IC50/EC50, GSK3b inh pretreated_Viability ATP HCT116 (assay number 26)",[10]; GSK3b inh pretreated,0.5044 µM
same,"IC50/EC50, Basal_Viability ATP SNU-C1 (assay number 30)",[11]; basal,2.185 µM
O=C1C2CC=CCC2C(=O)N1SC(Cl)(Cl)Cl (stereo not drawn) [NCGC00091034-10],IC50,"[1]; assay number 14, 2N, read-out: Hela CellCycMod PI 2N summarized IC50",> 10 µM
same,IC50,"[1]; assay number 15, S phase, read-out: Hela CellCycMod PI S Phase summarized IC50",> 10 µM
same,IC50,"[1]; assay number 16, 4N, read-out: Hela CellCycMod PI 4N summarized IC50",> 10 µM
same,IC50,"[1]; assay number 17, MI, read-out: Hela CellCycMod PI MI summarized IC50",6.14 µM
same,IC50,"[1]; assay number 18, cell number, read-out: Hela CellCycMod PI Cell Number summarized IC50",1.79 µM
same,IC50,"[2]; assay number 24, basal",0.0788 µM
same,IC50,"[3]; assay number 27, basal",0.306 µM
same,IC50,"[4]; assay number 29, basal",0.402 µM
same,IC50,[5],> 10 µM
same,IC50,"[6]; assay number 23, basal",0.348 µM
same,IC50,[7],> 10 µM
same,IC50,"[8]; assay number 28, basal",0.5 µM
same,IC50,"[9]; assay number 25, basal",1.76 µM
same,IC50,[10]; [12],2.21 µM
same,IC50,"[11]; assay number 30, basal",0.903 µM
Nc1c2ccccc2nc2ccccc12 [NCGC00094857-05],IC50,"[2]; assay number 24, basal",> 20 µM
same,IC50,"[3]; assay number 27, basal",8.81 µM
same,IC50,"[4]; assay number 29, basal",> 6.67 µM
same,IC50,[5],> 10 µM
same,IC50,"[6]; assay number 23, basal",> 20 µM
same,IC50,[7],> 10 µM
same,IC50,"[8]; assay number 28, basal",> 20 µM
same,IC50,"[9]; assay number 25, basal",2.02 µM
same,IC50,[10]; [12],3.87 µM
same,IC50,"[11]; assay number 30, basal",> 6.67 µM
CCOC(=O)[C@H](CCc1ccccc1)N[C@@H](C)C(=O)N1C(=O)N(C)C[C@H]1C(=O)O.Cl [NCGC00181342-02],Basal_Viability ATP SW480 IC50/EC50,"[2]; assay number 24, basal",> 20 µM
same,Basal_Viability ATP Colo 320 IC50/EC50,"[3]; assay number 27, basal",> 20 µM
same,Basal_Viability ATP RKO IC50/EC50,"[4]; assay number 29, basal",> 20 µM
same,VEGF_ADSC\ECFC Angio CD31 TubeArea IC50/EC50,[5],> 10 µM
same,Basal_Viability ATP DLD-1 IC50/EC50,"[6]; assay number 23, basal",> 20 µM
same,VEGF_ADSC\ECFC Angio Hoechst NucArea IC50/EC50,[7],> 10 µM
same,Basal_Viability ATP HT-29 IC50/EC50,"[8]; assay number 28, basal",> 20 µM
same,Basal_Viability ATP HCT116 IC50/EC50,"[9]; assay number 25, basal",> 20 µM
same,GSK3b inh pretreated_Viability ATP HCT116 IC50/EC50,[10]; [12],> 20 µM
same,Basal_Viability ATP SNU-C1 IC50/EC50,"[11]; assay number 30, basal",> 20 µM
CC(=O)NC(=O)c1ccccc1O [NCGC00160362-02],IC50,"[2]; assay number 24, basal",> 20 µM
same,IC50,"[3]; assay number 27, basal",> 20 µM
same,IC50,"[4]; assay number 29, basal",> 20 µM
same,IC50,[5],> 10 µM
same,IC50,"[6]; assay number 23, basal",> 20 µM
same,IC50,[7],> 10 µM
same,IC50,"[8]; assay number 28, basal",> 20 µM
same,IC50,"[9]; assay number 25, basal",> 20 µM
same,IC50,[10]; [12],> 20 µM
same,IC50,"[11]; assay number 30, basal",> 20 µM
